{
  "source": "patent US20090012046A1",
  "about": "“Methods of Treating Mutated Hiv” (priority 2006, published 2009)",
  "type_in_all_cases": "cell-based",
  "key": {"[1]": {"test_system": "HIV-1 IIIB", "experiment": "In vitro selection of viral strains resistant to RT inhibitors in MT4-LTR-EGFP cells", "conditions": "NcRTI-1: prolonged exposure (190 days)", "description": "To in vitro select viral strains resistant to RT inhibitors, MT4-LTR-EGFP cells were infected in the presence of the inhibitor (at 2 or 3 times EC50). Cultures were passaged every 3 to 4 days at the same concentration of inhibitor, until full virus breakthrough. At that time, virus was harvested and used for a new round of selection at a higher compound concentration. At each breakthrough, the harvested virus was genotyped to identify acquired mutations. For several RT inhibitors, alone or in combination, the mutations selected when replicating wild type HIV-1 (IIIB) in their presence, were determined (see Table 3)."}, "[2]": {"test_system": "HIV-2 (ROD)", "experiment": "Susceptibility of HIV-2 strain"}, "[3]": {"test_system": "HIV-1 strain with RT mutation M184V", "experiment": "Susceptibility of site-directed mutant strain", "conditions": "SDM strain M184V", "description": "(§1) Site-directed mutant RT coding sequences were generated from a pGEM vector containing the HIV-1 clone HXB2 protease and RT coding sequence by using a QuikChange™ site-directed mutagenesis kit, and HPLC-purified primers. Plasmids were sequenced to confirm that they contained the desired mutations. Mutant viruses were created by recombination of the mutant protease-RT sequence with a protease-RT deleted HIV-1 HXB2 proviral clone^2."}, "[4]": {"test_system": "HIV-1 strain with RT mutation K103N", "experiment": "Susceptibility of site-directed mutant strain", "conditions": "SDM strain K103N", "description": "as §1"}, "[5]": {"test_system": "HIV-1 strain with RT mutations M041L D067N K070R T215Y", "experiment": "Susceptibility of site-directed mutant strain", "conditions": "SDM strain M041L D067N K070R T215Y", "description": "as §1"}, "[6]": {"test_system": "HIV-1 strain with RT mutation Y181C", "experiment": "Susceptibility of site-directed mutant strain", "conditions": "SDM strain Y181C", "description": "as §1"}, "[7]": {"test_system": "HIV-1 strain with RT mutations F227C L234I", "experiment": "Susceptibility of site-directed mutant strain", "conditions": "SDM strain F227C L234I", "description": "as §1"}, "[8]": {"test_system": "HIV-1 strain with RT mutations K065R M184V", "experiment": "Susceptibility of site-directed mutant strain", "conditions": "SDM strain K065R M184V", "description": "as §1"}, "[9]": {"test_system": "HIV-1 strain with RT mutations K103N Y181C", "experiment": "Susceptibility of site-directed mutant strain", "conditions": "SDM strain K103N Y181C", "description": "as §1"}, "[10]": {"test_system": "HIV-1 strain with RT mutations T069S ins069-070S-S L210W T215Y", "experiment": "Susceptibility of site-directed mutant strain", "conditions": "SDM strain T069S ins069-070S-S L210W T215Y", "description": "as §1"}, "[11]": {"test_system": "HIV-1 strain with RT mutations A62V V75I F77L F116Y Q151M", "experiment": "Susceptibility of site-directed mutant strain", "conditions": "SDM strain A62V V75I F77L F116Y Q151M", "description": "as §1"}, "[12]": {"test_system": "HIV-1 strain with RT mutations Y115F M184V", "experiment": "Susceptibility of site-directed mutant strain", "conditions": "SDM strain Y115F M184V", "description": "as §1"}, "[13]": {"test_system": "HIV-1 strain with RT mutations K101E K103N", "experiment": "Susceptibility of site-directed mutant strain", "conditions": "SDM strain K101E K103N", "description": "as §1"}, "[14]": {"test_system": "HIV-1 strain with RT mutations L100I K103N", "experiment": "Susceptibility of site-directed mutant strain", "conditions": "SDM strain L100I K103N", "description": "as §1"}, "[15]": {"test_system": "HIV-1 strain with RT mutation Y188L", "experiment": "Susceptibility of site-directed mutant strain", "conditions": "SDM strain Y188L", "description": "as §1"}, "[16]": {"test_system": "HIV-1 strain with RT mutation Y115F", "experiment": "Susceptibility of site-directed mutant strain", "conditions": "SDM strain Y115F", "description": "as §1"}, "[17]": {"test_system": "HIV-1 strain with RT mutations L100I K103N E138G V179I Y181C", "experiment": "Susceptibility of site-directed mutant strain", "conditions": "SDM strain L100I K103N E138G V179I Y181C", "description": "as §1"}, "[18]": {"test_system": "HIV-1 strain with RT mutation K065R", "experiment": "Susceptibility of site-directed mutant strain", "conditions": "SDM strain K065R", "description": "as §1"}, "[19]": {"test_system": "clinical HIV-1 isolates", "experiment": "Susceptibility of recombinant clinical HIV-1 isolates to RT inhibitors (fold change in EC50)", "protocol": "The susceptibility of over 6000 recent clinical HIV-1 isolates for NcRTI-1 and different N(t)RTIs and NNRTIs was assessed.\nRecombinant HIV-1 viruses, derived from clinical samples, were constructed by cotransfection of MT4 cells with sample derived viral protease and RT coding sequences and an HIV-1 HXB2-derived proviral clone deleted in the protease and RT coding region^2."}, "[20]": {"conditions": "over 6000 recent clinical HIV-1 isolates"}},
  "note": "Several values for one entry are separate records, joined by “and”; a condition that tells them apart may be missing. Equal entries are not always repeated. Structures can show the parent of a compound that is named as a salt.",
  "data": [
    {"smiles": "Nc1nc(=O)n([C@@H]2CS[C@H](CO)O2)cc1F", "note": "[FTC, emtricitabine]", "values": [
      {"measurement": "selection of the K65R mutation when combined with TDF", "setting": "[1]", "value": "the K65R mutation was selected"}
    ]},
    {"smiles": "CC(C)OC(=O)OCOP(=O)(CO[C@H](C)Cn1cnc2c(N)ncnc21)OCOC(=O)OC(C)C", "note": "[TDF, tenofovir disoproxil fumarate]", "values": [
      {"measurement": "Fold change", "setting": "[2]", "value": 1.0},
      {"measurement": "Fold change", "setting": "[3]", "value": 0.8},
      {"measurement": "Fold change", "setting": "[4]", "value": 0.6},
      {"measurement": "Fold change", "setting": "[5]", "value": 3.3},
      {"measurement": "Fold change", "setting": "[6]", "value": 0.7},
      {"measurement": "Fold change", "setting": "[7]", "value": 0.6},
      {"measurement": "Fold change", "setting": "[8]", "value": 2.3},
      {"measurement": "Fold change", "setting": "[9]", "value": 0.5},
      {"measurement": "Fold change", "setting": "[10]", "value": 2.3},
      {"measurement": "Fold change", "setting": "[11]", "value": 3.7},
      {"measurement": "Fold change", "setting": "[12]", "value": 0.9},
      {"measurement": "Fold change", "setting": "[13]", "value": 0.5},
      {"measurement": "Fold change", "setting": "[14]", "value": 0.3},
      {"measurement": "Fold change", "setting": "[15]", "value": 0.7},
      {"measurement": "Fold change", "setting": "[16]", "value": 1.0},
      {"measurement": "Fold change", "setting": "[17]", "value": 0.4},
      {"measurement": "Fold change", "setting": "[18]", "value": 6.0}
    ]},
    {"smiles": "Cn1c2ccccc2c2c1cc(C#N)c(=O)n2-c1ccc([N+](=O)[O-])cc1", "note": "[NcRTI-1, 5-Methyl-1-(4-nitro-phenyl)-2-oxo-2,5-dihydro-1H-pyrido[3,2-b]indole-3-carbonitrile]", "values": [
      {"measurement": "effect of NNRTI resistance mutations and N(t)RTI multi-drug resistant patterns (TAMs, T69 insertion complex, Q151M complex) on activity", "setting": "[19]", "value": "not affected"},
      {"measurement": "cross-resistance with the NNRTIs EFV or NVP and the N(t)RTIs ZDV, TDF, ABC", "setting": "[19]; clinical HIV-1 isolates", "value": "No cross-resistance was observed"},
      {"measurement": "effect of the K65R mutation on susceptibility", "setting": "[19]; clinical isolates with K65R", "value": "hypersusceptibility"},
      {"measurement": "FC (fold change in EC50)", "setting": "[19]; clinical isolates with combination of mutations M184V+Y115F, random set of more than 1700 isolates", "value": 75},
      {"measurement": "profiled clinical isolates showing resistance (FC>10)", "setting": "[19]; [20]", "value": 2.3, "unit": "%"},
      {"measurement": "profiled clinical isolates that remained susceptible (fold change in EC50 (FC)<4)", "setting": "[19]; [20]", "value": 82, "unit": "%"},
      {"measurement": "profiled clinical isolates with reduced susceptibility (FC4-10)", "setting": "[19]; [20]", "value": 15.7, "unit": "%"},
      {"measurement": "Fold change", "setting": "[2]", "value": 14},
      {"measurement": "selection of the K65R mutation when combined with TDF", "setting": "[1]", "value": "did not result in selection of the K65R mutation"},
      {"measurement": "Fold change", "setting": "[3]", "value": 5.0},
      {"measurement": "Fold change", "setting": "[4]", "value": 1.9},
      {"measurement": "Fold change", "setting": "[5]", "value": 3.8},
      {"measurement": "Fold change", "setting": "[6]", "value": 2.3},
      {"measurement": "Fold change", "setting": "[7]", "value": 2.0},
      {"measurement": "Fold change", "setting": "[8]", "value": "0.89 and 0.9"},
      {"measurement": "Fold change", "setting": "[9]", "value": 2.1},
      {"measurement": "Fold change", "setting": "[10]", "value": 0.9},
      {"measurement": "Fold change", "setting": "[11]", "value": 1.0},
      {"measurement": "Fold change", "setting": "[12]", "value": 75},
      {"measurement": "Fold change", "setting": "[13]", "value": 2.1},
      {"measurement": "Fold change", "setting": "[14]", "value": 2.6},
      {"measurement": "Fold change", "setting": "[15]", "value": 1.7},
      {"measurement": "Fold change", "setting": "[16]", "value": 7.9},
      {"measurement": "Fold change", "setting": "[17]", "value": 2.5},
      {"measurement": "Fold change", "setting": "[18]", "value": "0.46 and 0.5"}
    ]},
    {"smiles": "Cc1cn([C@H]2C[C@H](N=[N+]=[N-])[C@@H](CO)O2)c(=O)[nH]c1=O", "note": "[ZDV, zidovudine]", "values": [
      {"measurement": "Fold change", "setting": "[2]", "value": 0.1}
    ]},
    {"smiles": "Cc1ccnc2c1NC(=O)c1cccnc1N2C1CC1", "note": "[NVP, nevirapine]", "values": [
      {"measurement": "Fold change", "setting": "[2]", "value": ">100"},
      {"measurement": "Fold change", "setting": "[3]", "value": 2.3},
      {"measurement": "Fold change", "setting": "[4]", "value": 50},
      {"measurement": "Fold change", "setting": "[5]", "value": 2.8},
      {"measurement": "Fold change", "setting": "[6]", "value": ">100"},
      {"measurement": "Fold change", "setting": "[7]", "value": 31},
      {"measurement": "Fold change", "setting": "[8]", "value": 1.2},
      {"measurement": "Fold change", "setting": "[9]", "value": ">100"},
      {"measurement": "Fold change", "setting": "[10]", "value": 1.1},
      {"measurement": "Fold change", "setting": "[12]", "value": 2.3},
      {"measurement": "Fold change", "setting": "[13]", "value": ">100"},
      {"measurement": "Fold change", "setting": "[14]", "value": ">100"},
      {"measurement": "Fold change", "setting": "[15]", "value": ">100"},
      {"measurement": "Fold change", "setting": "[16]", "value": 2.9},
      {"measurement": "Fold change", "setting": "[17]", "value": ">100"},
      {"measurement": "Fold change", "setting": "[18]", "value": 3.4}
    ]},
    {"smiles": "Nc1ccn([C@@H]2CS[C@H](CO)O2)c(=O)n1", "note": "[3TC, lamivudine]", "values": [
      {"measurement": "Fold change", "setting": "[2]", "value": 0.6},
      {"measurement": "Fold change", "setting": "[3]", "value": ">100"},
      {"measurement": "Fold change", "setting": "[4]", "value": 1.1},
      {"measurement": "Fold change", "setting": "[5]", "value": 8.1},
      {"measurement": "Fold change", "setting": "[6]", "value": 1.1},
      {"measurement": "Fold change", "setting": "[7]", "value": 1.1},
      {"measurement": "Fold change", "setting": "[8]", "value": ">100"},
      {"measurement": "Fold change", "setting": "[9]", "value": 0.9},
      {"measurement": "Fold change", "setting": "[10]", "value": 9.5},
      {"measurement": "Fold change", "setting": "[12]", "value": ">100"},
      {"measurement": "Fold change", "setting": "[13]", "value": 1.3},
      {"measurement": "Fold change", "setting": "[14]", "value": 0.5},
      {"measurement": "Fold change", "setting": "[15]", "value": 1.9},
      {"measurement": "Fold change", "setting": "[16]", "value": 0.7},
      {"measurement": "Fold change", "setting": "[17]", "value": 0.7},
      {"measurement": "Fold change", "setting": "[18]", "value": ">20"}
    ]}
  ]
}
